# Data: ChEMBL document CHEMBL5036336, “Structure-Guided Optimization Provides a Series of TTK Protein Inhibitors with Potent Antitumor Activity” (J Med Chem, 2021)
# Tests used:
# [1] = Kinetic solubility of compound in PBS at pH 7.4 at 200 uM incubated for 24 hrs by UPLC/MS analysis; assay type: physicochemical; conditions: read-out: Kinetic_solubility
# [2] = target: T1, Dual specificity protein kinase TTK (Homo sapiens, UniProt P33981); assay: Displacement of kinase tracer 236 from TTK (unknown origin) by LanthaScreen Eu kinase binding assay
# T1 sequence (P33981 whole entry): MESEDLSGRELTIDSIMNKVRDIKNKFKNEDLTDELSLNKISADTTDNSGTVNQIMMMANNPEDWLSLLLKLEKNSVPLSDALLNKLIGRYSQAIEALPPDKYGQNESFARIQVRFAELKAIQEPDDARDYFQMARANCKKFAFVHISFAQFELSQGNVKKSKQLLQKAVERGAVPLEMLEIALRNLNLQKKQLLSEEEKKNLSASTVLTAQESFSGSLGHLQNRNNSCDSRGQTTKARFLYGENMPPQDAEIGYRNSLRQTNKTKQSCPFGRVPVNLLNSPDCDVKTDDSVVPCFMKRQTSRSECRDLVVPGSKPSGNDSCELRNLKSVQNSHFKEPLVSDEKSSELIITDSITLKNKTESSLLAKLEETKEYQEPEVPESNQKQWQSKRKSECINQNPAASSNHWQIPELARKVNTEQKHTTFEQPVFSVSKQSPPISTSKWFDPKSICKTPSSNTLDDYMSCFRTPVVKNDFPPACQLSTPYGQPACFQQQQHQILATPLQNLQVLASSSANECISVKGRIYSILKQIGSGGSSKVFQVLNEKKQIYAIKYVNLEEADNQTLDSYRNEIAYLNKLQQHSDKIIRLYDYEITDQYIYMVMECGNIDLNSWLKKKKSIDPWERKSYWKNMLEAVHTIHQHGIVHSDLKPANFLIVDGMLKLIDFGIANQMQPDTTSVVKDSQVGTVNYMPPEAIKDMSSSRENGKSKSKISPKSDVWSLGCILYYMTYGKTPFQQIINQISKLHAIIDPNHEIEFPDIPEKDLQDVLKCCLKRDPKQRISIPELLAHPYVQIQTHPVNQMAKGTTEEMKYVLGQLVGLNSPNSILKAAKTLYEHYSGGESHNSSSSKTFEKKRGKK
# [3] = Clearance in rat at 2 mg/kg, iv; assay type: ADME, organism-based; conditions: in vivo
# CAL-51 = assay: Antiproliferative activity against human CAL-51 cells assessed as inhibition of cell proliferation measured after 3 days by Cell Titer-Glo luminescence based assay; assay type: functional; conditions: CAL-51, 72 h
# Cytochrome P450 3A4 = Cytochrome P450 3A4 (Homo sapiens, UniProt P08684); assay: Inhibition of CYP3A4 in human liver microsomes using […] as substrate incubated for 5 mins in presence of NADPH by LC-MS/MS analysis; assay type: ADME
# Cytochrome P450 3A4, sequence (P08684 whole entry): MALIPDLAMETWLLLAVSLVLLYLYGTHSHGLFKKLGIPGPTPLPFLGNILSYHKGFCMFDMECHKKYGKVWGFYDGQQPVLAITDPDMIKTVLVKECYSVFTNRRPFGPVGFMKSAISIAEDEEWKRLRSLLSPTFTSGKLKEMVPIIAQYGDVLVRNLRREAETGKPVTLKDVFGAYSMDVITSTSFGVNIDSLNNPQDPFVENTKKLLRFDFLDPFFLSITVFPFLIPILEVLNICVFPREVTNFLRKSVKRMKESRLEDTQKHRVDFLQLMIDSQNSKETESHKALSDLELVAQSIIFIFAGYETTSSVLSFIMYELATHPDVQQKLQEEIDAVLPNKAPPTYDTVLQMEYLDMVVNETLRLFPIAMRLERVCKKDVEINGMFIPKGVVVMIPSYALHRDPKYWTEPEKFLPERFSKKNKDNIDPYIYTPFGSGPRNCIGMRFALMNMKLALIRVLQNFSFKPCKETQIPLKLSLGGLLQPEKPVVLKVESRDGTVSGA
Compound,"solubility kinetic at 24 h, 200 µM [1]",IC50 [2],clearance [3],IC50 (CAL-51),IC50 (Cytochrome P450 3A4)
CCc1cccc(CC)c1NC(=O)c1cc(-c2nc(Nc3ccc(N4CCN(CC(=O)N(C)C)CC4)cc3OC)nc3[nH]ccc23)n(C)n1,3 µM,3 nM,20 mL/min/kg,22 nM,–
CCc1cccc(CC)c1N1CCn2cc(-c3nc(Nc4ccc(N5CCC(C(=O)N6CCN(C)CC6)CC5)cc4OC)nc4[nH]ccc34)cc2C1=O,0.8 µM,5.6 nM,1.7 mL/min/kg,5 nM,> 5000 nM
CCc1cccc(CC)c1NC(=O)c1cc(-c2nc(Nc3ccc(N4CCC(C(=O)N5CCN(C)CC5)CC4)cc3OC)nc3[nH]ccc23)n(C)n1,2 µM,4 nM,19 mL/min/kg,17 nM,> 5000 nM
CCc1cccc(CC)c1N1CCn2cc(-c3nc(Nc4ccc(N5CCC(C(=O)N(C)CCN(C)C)CC5)cc4OC)nc4[nH]ccc34)cc2C1=O,125 µM,5.3 nM,27 mL/min/kg,7 nM,3900 nM
CCc1cccc(CC)c1NC(=O)c1cc(-c2nc(Nc3ccc(N4CCC(O)(C(=O)N5CCN(C)CC5)CC4)cc3OC)nc3[nH]ccc23)n(C)n1,5 µM,3 nM,31 mL/min/kg,20 nM,> 5000 nM
COc1cc(N2CCN(C3COC3)CC2)ccc1Nc1nc(O[C@H]2CCOC(C)(C)C2)c2cc[nH]c2n1,–,–,–,–,> 5000 nM
CCc1cccc(CC)c1NC(=O)c1cc(-c2nc(Nc3ccc(N4CCC(N5CCN(C)CC5)CC4)cc3OC)nc3[nH]ccc23)n(C)n1,18 µM,6 nM,15 mL/min/kg,17 nM,> 5000 nM
CCc1cccc(CC)c1NC(=O)c1cc(-c2nc(Nc3ccc(N4CCC(O)(CN5CCN(C)CC5)CC4)cc3OC)nc3[nH]ccc23)n(C)n1,162 µM,2 nM,56 mL/min/kg,19 nM,> 5000 nM
CCc1cccc(CC)c1N1CCn2cc(-c3nc(Nc4ccc(N5CCN(CC(=O)N(C)C)CC5)cc4OC)nc4[nH]ccc34)cc2C1=O,1.4 µM,9 nM,23 mL/min/kg,11 nM,–
CNC(=O)c1ccc(Nc2nc(OC3CCCC3)c3c(-c4ccc5nc(C)oc5c4)c[nH]c3n2)c(OC)c1,–,–,–,–,280 nM
CCc1cccc(CC)c1N1CCn2cc(-c3nc(Nc4ccc(N5CCC(N6CCN(C)CC6)CC5)cc4OC)nc4[nH]ccc34)cc2C1=O,6 µM,4 nM,52 mL/min/kg,9 nM,> 5000 nM
CCc1cccc(CC)c1NC(=O)c1ccn(-c2nc(Nc3ccc(N4CCC(C(=O)N5CCN(C)CC5)CC4)cc3OC)nc3[nH]ccc23)c1,–,2 nM,22 mL/min/kg,10 nM,3100 nM
CCc1cccc(CC)c1NC(=O)c1ccn(-c2nc(Nc3ccc(N4CCC(N5CCN(C)CC5)CC4)cc3OC)nc3[nH]ccc23)c1,53 µM,2 nM,68 mL/min/kg,6 nM,2000 nM
CCc1cccc(CC)c1NC(=O)c1ccn(-c2nc(Nc3ccc(N4CCN(CC(=O)N(C)C)CC4)cc3OC)nc3[nH]ccc23)c1,0.5 µM,1 nM,–,10 nM,–
CCc1cccc(CC)c1N1CCn2cc(-c3nc(Nc4ccc(N5CCC(O)(CN6CCN(C)CC6)CC5)cc4OC)nc4[nH]ccc34)cc2C1=O,150 µM,2.8 nM,15 mL/min/kg,8 nM,> 5000 nM
CCc1cccc(CC)c1NC(=O)c1ccn(-c2nc(Nc3ccc(N4CCC(O)(C(=O)N5CCN(C)CC5)CC4)cc3OC)nc3[nH]ccc23)c1,1 µM,2 nM,–,10 nM,1900 nM
CCc1cccc(CC)c1N1CCn2cc(-c3nc(Nc4ccc(N5CCC(O)(C(=O)N6CCN(C)CC6)CC5)cc4OC)nc4[nH]ccc34)cc2C1=O,2 µM,7.5 nM,20 mL/min/kg,12 nM,> 5000 nM
CCc1cccc(CC)c1NC(=O)c1ccn(-c2nc(Nc3ccc(N4CCC(O)(CN5CCN(C)CC5)CC4)cc3OC)nc3[nH]ccc23)c1,37 µM,1 nM,–,4 nM,1200 nM
